Experimental data taken from patent US11661419B2, “Benzimidazole derivative compounds and uses thereof” (Pfizer Inc., priority 2019, dated 2023).

Tests used:
[1] = system: IL-2 in activated CD4+ human T-cells; test: IL-2 inhibition in supernatants from activated CD4+ human T-cells (cisbio HTRF); format: cell-based; conditions: T-cell; geometric mean of count n; CD3/CD28-expanded human CD4+ T cells stimulated with ImmunoCult, 20 to 24 hrs
Procedure: IL-2-Inhibition Activity, IC50 (uM)
IL-2 inhibition activity in supernatants from activated CD4+ human T-cells was determined by measuring the effect of a test compound on the activity using the cisbio HTRF™ technology.
Human CD4+ T cells were activated with CD3/CD28 for 3 days and expanded for an additional 4-6 days (7 to 9 days total). On day 0, frozen CD4+ T cells were thawed, treated with CD3/CD28 Dynabeads, and incubated at 37° C./5% CO2. On day 3, the beads were removed, and the cells were diluted to 5×10^5 cells/cm^2, placed in G-Rex10 flask, and incubated at 37° C./5% CO2. On day 7 to day 9 the cells were removed from the G-Rex flasks, counted and diluted back to 1×10^6 cells/ml in standard tissue culture flask.
The expanded CD4+ T-cells were centrifuged at 300×g for 10 minutes and resuspended to 0.5 million cells per ml (30,000 cells/well). 60 μl of CD4+ T cells were added per well to a 384 well plate containing 0.1 μL of varying concentrations of test compound in DMSO. The plates were incubated for 15 min at 37° C./5% CO2. 20 μl of diluted ImmunoCult™ ([…] Technologies, 1:12.5 in T cell assay media) were added to all wells of the plate (1:50 final assay concentration). The plates were incubated for an additional 20 to 24 hrs at 37° C./5% CO2. The plates were centrifuged at 300×g for 10 minutes. 16 μL of supernatant was removed and combined with 4 μl of IL-2 HTRF Abs. (cisbio kit). Plates were incubated for 3 hours at RT and read with an EnVision plate reader at 665 nm and 615 nm wavelengths.

[2] = biological target: Tropomyosin receptor kinase A (TRKA, NTRK1) (Homo sapiens (Human), UniProt P04629); test: TRKA (NTRK1) enzyme Z'-LYTE assay; format: biochemical; conditions: arithmetic mean of count n; test compound 1 uM, ATP 1 mM
Chain of Tropomyosin receptor kinase A (TRKA, NTRK1) (P04629 33-796): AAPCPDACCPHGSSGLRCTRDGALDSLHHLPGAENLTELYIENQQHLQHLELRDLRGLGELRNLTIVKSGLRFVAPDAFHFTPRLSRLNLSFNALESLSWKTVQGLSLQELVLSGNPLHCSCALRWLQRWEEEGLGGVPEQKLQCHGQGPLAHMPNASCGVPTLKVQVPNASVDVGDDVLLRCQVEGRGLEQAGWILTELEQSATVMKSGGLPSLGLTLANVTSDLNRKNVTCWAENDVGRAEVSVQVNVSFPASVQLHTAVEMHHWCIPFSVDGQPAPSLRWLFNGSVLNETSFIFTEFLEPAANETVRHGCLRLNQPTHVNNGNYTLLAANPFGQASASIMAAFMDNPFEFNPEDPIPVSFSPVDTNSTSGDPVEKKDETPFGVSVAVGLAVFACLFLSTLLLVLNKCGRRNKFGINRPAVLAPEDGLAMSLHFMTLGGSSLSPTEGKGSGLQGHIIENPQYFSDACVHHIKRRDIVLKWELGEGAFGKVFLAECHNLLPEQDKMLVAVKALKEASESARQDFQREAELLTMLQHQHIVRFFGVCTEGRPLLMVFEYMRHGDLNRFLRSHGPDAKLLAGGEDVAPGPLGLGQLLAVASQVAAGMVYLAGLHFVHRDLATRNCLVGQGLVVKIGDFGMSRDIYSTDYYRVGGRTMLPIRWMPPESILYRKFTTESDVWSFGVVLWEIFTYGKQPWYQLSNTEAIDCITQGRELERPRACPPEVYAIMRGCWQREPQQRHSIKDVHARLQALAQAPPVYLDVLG
Procedure: Tropomyosin Receptor Kinase a (TRKA) Activity, % Inhibition
TRKA, also known as neurotrophic tyrosine kinase receptor type 1 (NTKR1) activity was determined by measuring the effect of a test compound on the activity against the NTRK1 enzyme using the ThermoFisher Z'-LYTE Assay fluorescence-based coupled enzyme format (www.thermofisher.com/selectscreen). […] The resulting effect value for the tested compound was compared to the assay controls to determine the % inhibition (%).

Compound | IC50 [1] | inhibition at 1 µM [2]
Cc1cc2[nH]c(-c3n[nH]c4c3C[C@@H]3C[C@]3(C)C4)nc2cc1N(C)C(=O)CN1CCOCC1 [Example 34, N-Methyl-N-(6-methyl-2-((4aS,5aR)-5a-methyl-1,4,4a,5,5a,6-hexahydrocyclopropa[f]indazol-3-yl)-1H-benzo[d]imidazol-5-yl)-2-morpholinoacetamide] | 103 nM | 98%
C[C@@H](C(=O)N(C)c1cc(CO)c2[nH]c(-c3n[nH]c4c3C[C@@H]3C[C@]3(C)C4)nc2c1)N1CCOCC1 [Example 45, (S)—N-(7-(hydroxymethyl)-2-((4aS,5aR)-5a-methyl-1,4,4a,5,5a,6-hexahydrocyclopropa[f]indazol-3-yl)-1H-benzo[d]imidazol-5-yl)-N-methyl-2-morpholinopropanamide] | 365 nM | 97%
CN(C(=O)CC1CCOCC1)c1ccc2[nH]c(-c3n[nH]c4c3C[C@@H]3C[C@]3(C)C4)nc2c1 [Example 10, N-methyl-N-(2-((4aS,5aR)-5a-methyl-1,4,4a,5,5a,6-hexahydrocyclopropa[f]indazol-3-yl)-1H-benzo[d]imidazol-5-yl)-2-(tetrahydro-2H-pyran-4-yl)acetamide] | 67 nM | 104%
C[C@@H](C(=O)N(C)c1ccc2[nH]c(-c3n[nH]c4c3C[C@@H]3C[C@]3(C)C4)nc2c1)N1CCOCC1 [Example 14, (S)—N-methyl-N-(2-((4aS,5aR)-5a-methyl-1,4,4a,5,5a,6-hexahydrocyclopropa[f]indazol-3-yl)-1H-benzo[d]imidazol-5-yl)-2-morpholinopropanamide] | 42 nM | 92%
C[C@@H](C(=O)N(C)c1cc(C#N)c2[nH]c(-c3n[nH]c4c3C[C@@H]3C[C@]3(C)C4)nc2c1)C1CCOCC1 [Example 55, (R)—N-(7-cyano-2-((4aS,5aR)-5a-methyl-1,4,4a,5,5a,6-hexahydrocyclopropa[f]indazol-3-yl)-1H-benzo[d]imidazol-5-yl)-N-methyl-2-(tetrahydro-2H-pyran-4-yl)propanamide] | 41 nM | 89%
C[C@@H](C(=O)N(C)c1cc2nc(-c3n[nH]c4c3C[C@@H]3C[C@]3(C)C4)[nH]c2cc1Br)N1CCOCC1 [Example 20, (S)—N-(6-bromo-2-((4aS,5aR)-5a-methyl-1,4,4a,5,5a,6-hexahydrocyclopropa[f]indazol-3-yl)-1H-benzo[d]imidazol-5-yl)-N-methyl-2-morpholinopropanamide] | 53 nM | 98%
Cc1cc2[nH]c(-c3n[nH]c4c3C[C@@H]3C[C@]3(C)C4)nc2cc1N(C)C(=O)[C@H](C)C1CCOCC1 [Example 4, (R)—N-methyl-N-(6-methyl-2-((4aS,5aR)-5a-methyl-1,4,4a,5,5a,6-hexahydrocyclopropa[f]indazol-3-yl)-1H-benzo[d]imidazol-5-yl)-2-(tetrahydro-2H-pyran-4-yl)propanamide] | 22 nM | 95%
C[C@@H](C(=O)N(C)c1cc(Cl)c2[nH]c(-c3n[nH]c4c3C[C@@H]3C[C@]3(C)C4)nc2c1)N1CCOCC1 [Example 43, (S)—N-(7-chloro-2-((4aS,5aR)-5a-methyl-1,4,4a,5,5a,6-hexahydrocyclopropa[f]indazol-3-yl)-1H-benzo[d]imidazol-5-yl)-N-methyl-2-morpholinopropanamide] | 171 nM | 96%
C[C@@H](C(=O)N(C)c1cc2nc(-c3n[nH]c4c3C[C@@H]3C[C@]3(C)C4)[nH]c2cc1C#N)N1CCOCC1 [Example 21, (S)—N-(6-cyano-2-((4aS,5aR)-5a-methyl-1,4,4a,5,5a,6-hexahydrocyclopropa[f]indazol-3-yl)-1H-benzo[d]imidazol-5-yl)-N-methyl-2-morpholinopropanamide] | 98 nM | 91%
COc1cc(N(C)C(=O)[C@H](C)N2CCOCC2)cc2nc(-c3n[nH]c4c3C[C@@H]3C[C@]3(C)C4)[nH]c12 [Example 40, (S)—N-(7-methoxy-2-((4aS,5aR)-5a-methyl-1,4,4a,5,5a,6-hexahydrocyclopropa[f]indazol-3-yl)-1H-benzo[d]imidazol-5-yl)-N-methyl-2-morpholinopropanamide] | 103 nM | 96%
CCN(C(=O)[C@H](C)N1CCOCC1)c1cc2nc(-c3n[nH]c4c3C[C@@H]3C[C@]3(C)C4)[nH]c2c(F)c1F [Example 25, (S)—N-(6,7-difluoro-2-((4aS,5aR)-5a-methyl-1,4,4a,5,5a,6-hexahydrocyclopropa[f]indazol-3-yl)-1H-benzo[d]imidazol-5-yl)-N-ethyl-2-morpholinopropanamide] | 101 nM | 101%
CCc1cc(N(C)C(=O)[C@H](C)N2CCOCC2)cc2nc(-c3n[nH]c4c3C[C@@H]3C[C@]3(C)C4)[nH]c12 [Example 44, (S)—N-(7-ethyl-2-((4aS,5aR)-5a-methyl-1,4,4a,5,5a,6-hexahydrocyclopropa[f]indazol-3-yl)-1H-benzo[d]imidazol-5-yl)-N-methyl-2-morpholinopropanamide] | 219 nM | 94%
COCc1cc(N(C)C(=O)[C@H](C)N2CCOCC2)cc2nc(-c3n[nH]c4c3C[C@@H]3C[C@]3(C)C4)[nH]c12 [Example 42, (S)—N-(7-(methoxymethyl)-2-((4aS,5aR)-5a-methyl-1,4,4a,5,5a,6-hexahydrocyclopropa[f]indazol-3-yl)-1H-benzo[d]imidazol-5-yl)-N-methyl-2-morpholinopropanamide] | 200 nM | 98%
CCN(C(=O)[C@H](C)N1CCOCC1)c1cc(F)c2[nH]c(-c3n[nH]c4c3C[C@@H]3C[C@]3(C)C4)nc2c1 [Example 16, (S)—N-ethyl-N-(7-fluoro-2-((4aS,5aR)-5a-methyl-1,4,4a,5,5a,6-hexahydrocyclopropa[f]indazol-3-yl)-1H-benzo[d]imidazol-5-yl)-2-morpholinopropanamide] | 65 nM | 116%
Cc1cc2[nH]c(-c3n[nH]c4c3C[C@@H]3C[C@]3(C)C4)nc2cc1N(C)C(=O)CN1C[C@@H](C)O[C@H](C)C1 [Example 32, 2-((2R,6R)-2,6-Dimethylmorpholino)-N-methyl-N-(6-methyl-2-((4aS,5aR)-5a-methyl-1,4,4a,5,5a,6-hexahydrocyclopropa[f]indazol-3-yl)-1H-benzo[d]imidazol-5-yl)acetamide] | 83 nM | 99%
Cc1cc2[nH]c(-c3n[nH]c4c3C[C@@H]3C[C@]3(C)C4)nc2cc1N(C)C(=O)CN1CCO[C@@H](C)C1 [Example 31, N-Methyl-N-(6-methyl-2-((4aS,5aR)-5a-methyl-1,4,4a,5,5a,6-hexahydrocyclopropa[f]indazol-3-yl)-1H-benzo[d]imidazol-5-yl)-2-((S)-2-methylmorpholino)acetamide] | 75 nM | 99%
Cc1cc2[nH]c(-c3n[nH]c4c3C[C@@H]3C[C@]3(C)C4)nc2cc1NC(=O)[C@H](C)N1CCOCC1 [Example 52, (S)—N-(6-methyl-2-((4aS,5aR)-5a-methyl-1,4,4a,5,5a,6-hexahydrocyclopropa[f]indazol-3-yl)-1H-benzo[d]imidazol-5-yl)-2-morpholinopropanamide] | 274 nM | 109%
C[C@@H](C(=O)N(C)c1cc(C(F)(F)F)c2[nH]c(-c3n[nH]c4c3C[C@@H]3C[C@]3(C)C4)nc2c1)N1CCOCC1 [Example 41, (S)—N-methyl-N-(2-((4aS,5aR)-5a-methyl-1,4,4a,5,5a,6-hexahydrocyclopropa[f]indazol-3-yl)-7-(trifluoromethyl)-1H-benzo[d]imidazol-5-yl)-2-morpholinopropanamide] | 176 nM | 96%
CCN(C(=O)[C@H](C)N1CCOCC1)c1cc2nc(-c3n[nH]c4c3C[C@@H]3C[C@]3(C)C4)[nH]c2cc1C [Example 6, (S)—N-ethyl-N-(6-methyl-2-((4aS,5aR)-5a-methyl-1,4,4a,5,5a,6-hexahydrocyclopropa[f]indazol-3-yl)-1H-benzo[d]imidazol-5-yl)-2-morpholinopropanamide] | 101 nM | 102%
C[C@@H](C(=O)N(C)c1cc(Br)c2[nH]c(-c3n[nH]c4c3C[C@@H]3C[C@]3(C)C4)nc2c1)N1CCOCC1 [Example 37, (S)—N-(7-bromo-2-((4aS,5aR)-5a-methyl-1,4,4a,5,5a,6-hexahydrocyclopropa[f]indazol-3-yl)-1H-benzo[d]imidazol-5-yl)-N-methyl-2-morpholinopropanamide] | 130 nM | 96%
